# From ChEMBL document CHEMBL1201862, “PubChem BioAssay data set” (2004)
# Active and inactive are the calls of the source.
# What was measured:
# [1] = Luminescence Cell-Based Dose Retest to Confirm Inhibitors of Cancer Stem Cells. [Related pubchem assays (depositor defined):AID2717, AID2721]; type: functional; settings: Homo sapiens
# [2] = cytotoxicity in HMLE control line with eGFP shRNA, dose response, counter-screen for HMLE_sh_ECad selective toxicity project, cell-based, HMLE_sh_eGFP, luminescence (AID 463074); type: functional, Homo sapiens;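 note: HMLE human mammary epithelial cells expressing control shRNA against eGFP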
# Cytochrome P450 2D6 = Cytochrome P450 2D6 (Homo sapiens, UniProt P10635);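 note: CYP2D6 member of a cytochrome P450 panel assay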
# Hexokinase-1 = molecular target: T1, Hexokinase-1 (Homo sapiens, UniProt P19367); experiment: SAR analysis of small molecule inhibitors of hexokinase domain containing I (HKDC1) in the hexokinase 1 selectivity assay. [Related pubchem assays (depositor defined):AID493160, AID493190]; type: functional
# T1 sequence (P19367 whole entry): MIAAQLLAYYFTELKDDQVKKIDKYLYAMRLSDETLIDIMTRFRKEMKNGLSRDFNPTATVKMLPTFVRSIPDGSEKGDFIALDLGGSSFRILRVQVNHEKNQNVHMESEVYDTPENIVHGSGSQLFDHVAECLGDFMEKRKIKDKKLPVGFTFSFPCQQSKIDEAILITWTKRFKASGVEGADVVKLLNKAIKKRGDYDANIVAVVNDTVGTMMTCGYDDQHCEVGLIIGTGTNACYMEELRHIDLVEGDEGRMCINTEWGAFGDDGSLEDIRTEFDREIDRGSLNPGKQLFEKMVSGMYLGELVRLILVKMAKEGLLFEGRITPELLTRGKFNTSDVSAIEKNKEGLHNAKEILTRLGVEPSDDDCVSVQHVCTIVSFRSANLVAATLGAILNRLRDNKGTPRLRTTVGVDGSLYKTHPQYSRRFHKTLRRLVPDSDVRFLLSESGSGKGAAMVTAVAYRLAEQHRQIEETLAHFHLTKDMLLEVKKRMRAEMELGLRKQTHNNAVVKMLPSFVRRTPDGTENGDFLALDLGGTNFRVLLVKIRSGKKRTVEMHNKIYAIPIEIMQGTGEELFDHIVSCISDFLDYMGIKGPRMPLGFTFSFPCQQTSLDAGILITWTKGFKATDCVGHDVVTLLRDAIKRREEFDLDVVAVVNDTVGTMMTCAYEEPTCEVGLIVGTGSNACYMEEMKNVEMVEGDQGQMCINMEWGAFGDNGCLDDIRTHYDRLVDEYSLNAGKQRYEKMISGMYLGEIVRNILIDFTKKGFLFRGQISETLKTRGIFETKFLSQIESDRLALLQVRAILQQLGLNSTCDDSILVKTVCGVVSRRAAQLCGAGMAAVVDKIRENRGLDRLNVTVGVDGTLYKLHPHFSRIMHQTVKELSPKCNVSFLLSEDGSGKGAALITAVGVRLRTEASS
# Hexokinase HKDC1 = molecular target: T2, Hexokinase HKDC1 (Homo sapiens, UniProt Q2TB90); experiment: SAR analysis of small molecule inhibitors of hexokinase domain containing I (HKDC1). [Related pubchem assays (depositor defined):AID493160, AID493190]; type: functional
# T2 sequence (Q2TB90 whole entry): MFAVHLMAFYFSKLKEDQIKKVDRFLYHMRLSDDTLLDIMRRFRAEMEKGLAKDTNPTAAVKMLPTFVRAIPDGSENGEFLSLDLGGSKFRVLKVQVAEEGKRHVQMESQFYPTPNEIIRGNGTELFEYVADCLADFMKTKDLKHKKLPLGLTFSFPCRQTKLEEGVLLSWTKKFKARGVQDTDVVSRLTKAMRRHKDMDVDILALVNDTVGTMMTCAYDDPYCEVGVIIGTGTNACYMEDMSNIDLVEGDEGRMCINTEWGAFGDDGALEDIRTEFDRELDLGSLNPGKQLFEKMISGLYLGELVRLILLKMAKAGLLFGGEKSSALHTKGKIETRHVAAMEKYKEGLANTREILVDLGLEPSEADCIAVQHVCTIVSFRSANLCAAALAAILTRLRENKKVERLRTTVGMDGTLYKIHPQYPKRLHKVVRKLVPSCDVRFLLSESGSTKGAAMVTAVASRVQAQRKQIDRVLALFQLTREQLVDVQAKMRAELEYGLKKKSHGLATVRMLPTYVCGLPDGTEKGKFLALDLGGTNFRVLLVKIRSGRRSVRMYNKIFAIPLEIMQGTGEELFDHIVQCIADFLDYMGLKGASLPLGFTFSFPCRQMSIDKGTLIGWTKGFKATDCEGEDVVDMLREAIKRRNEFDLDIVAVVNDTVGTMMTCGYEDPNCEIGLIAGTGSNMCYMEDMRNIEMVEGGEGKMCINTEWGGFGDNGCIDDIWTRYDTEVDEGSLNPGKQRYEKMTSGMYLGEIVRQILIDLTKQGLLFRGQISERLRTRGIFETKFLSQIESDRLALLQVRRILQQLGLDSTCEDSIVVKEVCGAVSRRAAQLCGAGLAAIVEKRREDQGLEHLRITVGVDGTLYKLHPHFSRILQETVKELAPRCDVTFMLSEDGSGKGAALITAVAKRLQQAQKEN
# [3] = molecular target: T3, Type-1 angiotensin II receptor (Homo sapiens, UniProt P30556); experiment: AT1 receptor antagonists, dose response, selectivity assay for APJ receptor antagonist project, cell-based, uHTS hits (AID 463214); type: functional;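 note: antagonist potency against angiotensin II stimulated AT1 response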
# T3 sequence (P30556 whole entry): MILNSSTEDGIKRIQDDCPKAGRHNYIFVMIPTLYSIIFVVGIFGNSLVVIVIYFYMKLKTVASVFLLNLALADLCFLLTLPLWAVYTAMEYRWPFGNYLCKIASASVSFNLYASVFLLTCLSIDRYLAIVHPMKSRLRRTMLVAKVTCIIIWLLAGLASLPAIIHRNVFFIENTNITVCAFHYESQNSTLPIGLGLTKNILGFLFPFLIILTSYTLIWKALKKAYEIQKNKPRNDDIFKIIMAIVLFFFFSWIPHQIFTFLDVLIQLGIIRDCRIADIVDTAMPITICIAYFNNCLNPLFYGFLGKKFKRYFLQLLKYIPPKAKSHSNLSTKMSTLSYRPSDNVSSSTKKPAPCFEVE
# [4] = molecular target: ATP-dependent molecular chaperone HSP82 (Candida albicans (strain WO-1) (Yeast), UniProt C4YTQ8); experiment: loss of DOC-induced GRE-beta-galactosidase reporter signal, dose response, Hsp90 inhibitor project, S. cerevisiae, luminescence (AID 2400); type: functional, cell-based;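 note: beta-galactosidase luminescence from glucocorticoid response element reporter as proxy for Hsp90 function; inhibitor potency where signal loss means Hsp90 inhibition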
# [5] = C. albicans growth with fluconazole, confirmation, fluorescence, retest (AID 2467); type: functional, cell-based
# [6] = molecular target: Serine/threonine-protein phosphatase (Candida dubliniensis (strain CD36 / CBS 7987 / NCPF 3949 / NRRLY-17841) (Yeast), UniProt B9W6M3); experiment: calcineurin pathway inhibitors in yeast reporter, dose response, S. cerevisiae, CDRE-lacZ, luminescence, secondary (AID 2388); type: functional, cell-based;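 note: yeast reporter cells carrying a calcineurin-responsive lacZ construct stimulated with calcium chloride; luminescent beta-galactosidase reporter signal in whole cells rather than isolated phosphatase activity; potency for inhibition where a drop in reporter signal means calcineurin blockade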
# [7] = molecular target: T4, Polyadenylate-binding protein 1 (Homo sapiens, UniProt P11940); experiment: PABP1 MLLE–PAM2 interaction inhibitors, dose response, miRNA deadenylation inhibitor project, biochemical, fluorescence polarization, Cy5-PAM2 peptide, secondary (AID 602260); type: functional; settings: read-out: IC50_Mean
# [8] = NIH-3T3 fibroblast cytotoxicity, dose response, cytotoxicity control, cell-based, fluorescence, Alamar Blue, secondary assay (AID 2327); type: functional;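 note: NIH-3T3 mouse fibroblasts cultured with fluconazole at 8 µg/mL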
# Beta-galactosidase = Beta-galactosidase (Escherichia coli, UniProt Q8VNN2); experiment: PubChem AID 485352; type: functional
# [9] = molecular target: T4, Polyadenylate-binding protein 1; experiment: PABP1 MLLE–PAM2 binding inhibitor potency, dose response, biochemical, fluorescence polarization, FITC-PAM2 peptide (AID 602259); type: functional; settings: read-out: IC50_Mean
# Escherichia coli = experiment: microbe, parasite or virus in culture
# [10] = inhibitors of intracellular T. cruzi replication, confirmation, NIH3T3 host cells, beta-gal luminescence (AID 2044); type: functional, cell-based;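 note: intracellular parasites grown in NIH/3T3 mouse fibroblasts as host cells; luminescent beta-galactosidase reporter signal from transgenic T. cruzi replicating inside host cells; inhibitors lower the luminescence signal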
# [11] = microbe, parasite or virus in culture; type: functional; settings: Mycobacterium tuberculosis
# [12] = cytotoxicity toward NIH3T3 fibroblasts, dose response, counter-screen, cell-based, ATP luminescence, mouse fibroblasts (AID 2010); type: functional;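 note: cells exposed to compound for about 90 hours before reading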
# [13] = molecular target: T5, Apoptotic protease-activating factor 1 (Homo sapiens, UniProt O14727); type: functional
# T5 sequence (O14727 whole entry): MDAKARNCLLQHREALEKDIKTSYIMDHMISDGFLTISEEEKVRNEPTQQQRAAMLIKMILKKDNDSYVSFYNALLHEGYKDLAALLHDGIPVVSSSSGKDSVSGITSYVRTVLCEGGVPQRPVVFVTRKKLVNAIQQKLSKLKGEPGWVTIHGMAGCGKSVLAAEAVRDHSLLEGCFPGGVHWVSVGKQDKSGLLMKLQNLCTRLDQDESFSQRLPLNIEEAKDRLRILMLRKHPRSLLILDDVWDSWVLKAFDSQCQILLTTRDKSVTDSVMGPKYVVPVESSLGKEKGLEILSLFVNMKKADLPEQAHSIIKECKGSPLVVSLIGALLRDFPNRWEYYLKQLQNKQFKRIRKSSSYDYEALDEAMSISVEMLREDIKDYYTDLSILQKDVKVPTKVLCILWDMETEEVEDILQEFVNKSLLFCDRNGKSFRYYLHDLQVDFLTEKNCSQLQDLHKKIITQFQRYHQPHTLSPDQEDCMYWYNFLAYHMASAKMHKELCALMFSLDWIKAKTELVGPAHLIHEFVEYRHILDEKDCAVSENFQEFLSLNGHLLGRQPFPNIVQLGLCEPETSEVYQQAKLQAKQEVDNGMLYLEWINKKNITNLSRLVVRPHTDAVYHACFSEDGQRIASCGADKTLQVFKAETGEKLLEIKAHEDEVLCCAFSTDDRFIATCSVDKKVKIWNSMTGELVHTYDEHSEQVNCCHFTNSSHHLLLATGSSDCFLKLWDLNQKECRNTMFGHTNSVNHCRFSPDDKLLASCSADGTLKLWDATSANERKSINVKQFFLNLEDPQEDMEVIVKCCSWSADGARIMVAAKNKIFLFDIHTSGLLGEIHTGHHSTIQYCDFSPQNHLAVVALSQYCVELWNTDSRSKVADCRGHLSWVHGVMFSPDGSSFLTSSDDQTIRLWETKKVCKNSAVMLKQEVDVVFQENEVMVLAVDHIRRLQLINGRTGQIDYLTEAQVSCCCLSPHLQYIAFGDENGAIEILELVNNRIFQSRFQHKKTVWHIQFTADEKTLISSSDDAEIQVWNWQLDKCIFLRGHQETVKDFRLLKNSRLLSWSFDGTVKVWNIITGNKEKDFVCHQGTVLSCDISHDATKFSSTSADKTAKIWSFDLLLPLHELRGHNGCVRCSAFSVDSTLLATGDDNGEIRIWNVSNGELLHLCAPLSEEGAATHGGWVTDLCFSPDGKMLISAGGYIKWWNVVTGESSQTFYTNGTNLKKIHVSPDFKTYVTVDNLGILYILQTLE
# [14] = growth suppression of beta-catenin-knockout colon cells, dose response, cell-based, HCT116, human colon tumor (AID 1045); type: functional;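 note: HCT116 colon tumor cells with beta catenin knocked out; cells exposed to compound for 60 hours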
# [15] = growth suppression of PTEN-null colon cells, dose response, cell-based, HCT116 PTEN knockout (AID 1047); type: functional;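 note: HCT116 colon tumor cells with PTEN knocked out; cells exposed to compound for 60 hours before readout; potency for loss of cell viability measured by luminescence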
# HEK293 [16] = experiment: NOD1 signaling inhibitors, primary screen, cell-based, luminescence, uHTS (AID 1578); type: functional; settings: Homo sapiens
# HEK293 [17] = experiment: NOD2 signaling inhibitors in MDP-stimulated cells, cell-based, uHTS, luminescence (AID 2001); type: functional; settings: Homo sapiens
# HEK293 [18] = experiment: cells; type: functional, cell-based; settings: Homo sapiens
# HEK293 [19] = experiment: cells; type: functional, cell-based; settings: Homo sapiens; remark: listed apart in the source
# INS1 = experiment: beta cell apoptosis inhibitors, cytokine rescue, dose response, luminescence, retest (AID 449756); type: functional, cell-based; settings: Rattus norvegicus;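 note: cell death triggered by IL-1 beta plus TNF-alpha plus IFN-gamma mixture; protective hits raise ATP signal compared with cytokine alone wells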
# Cytochrome P450 2C19 = Cytochrome P450 2C19 (Homo sapiens, UniProt P33261); experiment: Cytochrome panel assay with activity outcomes. Panel member name: p450-cyp2c19 Compounds with AC50 equal or less than 10 uM are considered active; type: functional
# Chain of Cytochrome P450 2C19 (P33261 whole entry): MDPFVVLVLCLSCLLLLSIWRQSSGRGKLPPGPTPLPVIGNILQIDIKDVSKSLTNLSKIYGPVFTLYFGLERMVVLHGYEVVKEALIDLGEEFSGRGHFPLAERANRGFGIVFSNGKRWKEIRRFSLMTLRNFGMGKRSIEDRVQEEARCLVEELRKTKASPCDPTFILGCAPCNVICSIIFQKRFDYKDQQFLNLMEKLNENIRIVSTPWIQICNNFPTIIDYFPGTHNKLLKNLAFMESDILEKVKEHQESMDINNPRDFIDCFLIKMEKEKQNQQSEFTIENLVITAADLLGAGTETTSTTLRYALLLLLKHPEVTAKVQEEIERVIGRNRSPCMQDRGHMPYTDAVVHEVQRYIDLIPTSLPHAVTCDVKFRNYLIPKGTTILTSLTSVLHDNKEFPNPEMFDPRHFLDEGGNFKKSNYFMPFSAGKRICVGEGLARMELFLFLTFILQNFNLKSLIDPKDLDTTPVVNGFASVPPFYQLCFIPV
# Chain of Serine/threonine-protein phosphatase (B9W6M3 whole entry): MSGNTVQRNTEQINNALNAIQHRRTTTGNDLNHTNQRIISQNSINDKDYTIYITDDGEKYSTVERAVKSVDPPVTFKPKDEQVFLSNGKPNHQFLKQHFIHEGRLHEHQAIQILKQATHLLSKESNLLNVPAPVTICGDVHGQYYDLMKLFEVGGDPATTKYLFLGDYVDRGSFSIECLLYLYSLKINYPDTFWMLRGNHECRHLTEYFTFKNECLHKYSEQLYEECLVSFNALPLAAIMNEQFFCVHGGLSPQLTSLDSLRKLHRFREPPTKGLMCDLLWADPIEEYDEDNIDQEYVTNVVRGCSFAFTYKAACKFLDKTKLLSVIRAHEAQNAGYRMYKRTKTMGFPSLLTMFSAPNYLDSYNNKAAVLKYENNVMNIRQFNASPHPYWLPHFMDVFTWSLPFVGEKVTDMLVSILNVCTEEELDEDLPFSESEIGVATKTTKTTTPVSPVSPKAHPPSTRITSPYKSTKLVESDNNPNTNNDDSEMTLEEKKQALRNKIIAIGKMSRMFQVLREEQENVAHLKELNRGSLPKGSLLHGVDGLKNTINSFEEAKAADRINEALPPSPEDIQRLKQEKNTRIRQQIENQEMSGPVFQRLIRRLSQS
# Chain of ATP-dependent molecular chaperone HSP82 (C4YTQ8 whole entry): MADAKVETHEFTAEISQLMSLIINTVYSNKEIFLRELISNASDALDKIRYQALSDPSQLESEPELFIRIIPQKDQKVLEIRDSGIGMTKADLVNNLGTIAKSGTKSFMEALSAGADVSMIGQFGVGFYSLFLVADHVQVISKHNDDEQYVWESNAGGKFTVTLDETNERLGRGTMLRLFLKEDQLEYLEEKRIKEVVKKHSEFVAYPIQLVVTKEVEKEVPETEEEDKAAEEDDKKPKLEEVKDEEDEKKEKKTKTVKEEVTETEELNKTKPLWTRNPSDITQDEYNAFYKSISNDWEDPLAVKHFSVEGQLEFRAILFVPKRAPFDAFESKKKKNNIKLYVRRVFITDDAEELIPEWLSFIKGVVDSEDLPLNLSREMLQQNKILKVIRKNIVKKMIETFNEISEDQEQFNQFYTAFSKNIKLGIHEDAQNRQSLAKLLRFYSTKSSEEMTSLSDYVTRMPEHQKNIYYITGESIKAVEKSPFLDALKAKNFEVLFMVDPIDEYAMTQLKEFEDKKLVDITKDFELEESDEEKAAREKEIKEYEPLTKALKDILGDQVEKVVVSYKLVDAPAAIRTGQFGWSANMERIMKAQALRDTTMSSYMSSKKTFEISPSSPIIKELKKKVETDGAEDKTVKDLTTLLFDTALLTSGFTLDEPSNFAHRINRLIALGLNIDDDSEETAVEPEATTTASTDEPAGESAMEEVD
# Chain of Cytochrome P450 2D6 (P10635 whole entry, the tested form may be a part): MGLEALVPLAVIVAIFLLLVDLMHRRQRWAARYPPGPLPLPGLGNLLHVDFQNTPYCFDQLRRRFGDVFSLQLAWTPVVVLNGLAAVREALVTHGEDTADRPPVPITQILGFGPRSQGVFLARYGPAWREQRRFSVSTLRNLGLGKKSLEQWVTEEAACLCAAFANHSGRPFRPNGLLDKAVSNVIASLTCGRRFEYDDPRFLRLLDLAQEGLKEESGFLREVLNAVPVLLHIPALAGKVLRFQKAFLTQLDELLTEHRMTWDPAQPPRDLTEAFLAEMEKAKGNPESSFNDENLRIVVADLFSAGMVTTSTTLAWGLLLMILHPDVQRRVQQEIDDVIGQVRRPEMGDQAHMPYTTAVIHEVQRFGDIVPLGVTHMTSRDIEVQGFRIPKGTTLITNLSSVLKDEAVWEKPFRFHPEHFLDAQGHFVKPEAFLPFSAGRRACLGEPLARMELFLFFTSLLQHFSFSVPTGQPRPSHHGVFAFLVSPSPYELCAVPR
# T4 sequence (P11940 whole entry): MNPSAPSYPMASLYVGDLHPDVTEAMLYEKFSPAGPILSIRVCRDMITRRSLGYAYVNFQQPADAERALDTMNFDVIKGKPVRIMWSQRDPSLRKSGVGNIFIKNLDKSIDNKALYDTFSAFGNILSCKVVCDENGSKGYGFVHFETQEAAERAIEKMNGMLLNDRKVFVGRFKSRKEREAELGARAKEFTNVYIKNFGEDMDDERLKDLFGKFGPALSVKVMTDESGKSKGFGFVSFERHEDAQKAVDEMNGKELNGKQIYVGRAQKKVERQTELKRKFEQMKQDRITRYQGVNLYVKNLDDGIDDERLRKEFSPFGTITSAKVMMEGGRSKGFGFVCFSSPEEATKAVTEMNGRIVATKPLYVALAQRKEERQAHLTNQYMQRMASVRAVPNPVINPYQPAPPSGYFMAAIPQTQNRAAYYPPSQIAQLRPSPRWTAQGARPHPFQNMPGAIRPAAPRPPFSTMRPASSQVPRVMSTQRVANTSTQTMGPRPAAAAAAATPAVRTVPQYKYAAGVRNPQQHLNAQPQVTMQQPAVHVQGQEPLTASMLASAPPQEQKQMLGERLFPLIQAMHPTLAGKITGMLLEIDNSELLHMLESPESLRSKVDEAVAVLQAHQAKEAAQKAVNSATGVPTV
# Chain of Beta-galactosidase (Q8VNN2 whole entry): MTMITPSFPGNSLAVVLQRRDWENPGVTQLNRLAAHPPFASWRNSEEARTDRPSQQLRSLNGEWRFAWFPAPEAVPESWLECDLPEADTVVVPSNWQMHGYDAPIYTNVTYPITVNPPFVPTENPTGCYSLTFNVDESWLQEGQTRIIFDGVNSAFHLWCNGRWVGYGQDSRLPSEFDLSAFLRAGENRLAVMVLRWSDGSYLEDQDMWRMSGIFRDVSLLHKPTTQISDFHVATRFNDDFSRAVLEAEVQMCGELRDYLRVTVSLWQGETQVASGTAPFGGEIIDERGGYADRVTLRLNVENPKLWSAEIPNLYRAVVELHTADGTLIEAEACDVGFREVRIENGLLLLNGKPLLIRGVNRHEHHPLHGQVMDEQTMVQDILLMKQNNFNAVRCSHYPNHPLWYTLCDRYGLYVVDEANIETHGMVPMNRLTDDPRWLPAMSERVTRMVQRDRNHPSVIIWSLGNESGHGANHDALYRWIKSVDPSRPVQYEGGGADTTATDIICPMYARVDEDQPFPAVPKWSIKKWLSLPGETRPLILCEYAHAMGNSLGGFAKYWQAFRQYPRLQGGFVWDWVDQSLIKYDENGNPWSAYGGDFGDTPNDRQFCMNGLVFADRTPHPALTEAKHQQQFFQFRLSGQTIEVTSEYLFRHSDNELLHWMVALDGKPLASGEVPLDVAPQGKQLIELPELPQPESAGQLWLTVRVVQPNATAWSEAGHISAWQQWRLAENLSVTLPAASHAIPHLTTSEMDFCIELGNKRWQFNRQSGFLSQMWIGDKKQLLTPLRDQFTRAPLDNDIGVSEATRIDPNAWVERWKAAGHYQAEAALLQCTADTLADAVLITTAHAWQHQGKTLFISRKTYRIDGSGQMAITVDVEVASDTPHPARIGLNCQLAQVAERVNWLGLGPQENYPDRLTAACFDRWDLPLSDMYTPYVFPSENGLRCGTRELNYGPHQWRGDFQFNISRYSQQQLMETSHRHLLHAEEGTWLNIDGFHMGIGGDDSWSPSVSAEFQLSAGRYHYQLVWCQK
smiles,measurement,setting,value
CC1CCN(C2=NN3C(=N)/C(=C\c4ccc(OC(=O)c5ccco5)cc4)C(=O)N=C3S2)CC1,AC50,[1],14.6 µM (active)
same,AC50,[2],25.4 µM (active)
Cl.N=C(N)N/N=C\c1cnn(C(=N)N)c1,AC50,Cytochrome P450 2D6,inconclusive
O=C(CSc1nc2ccccc2[nH]1)Nc1cccc(S(=O)(=O)N2CCOCC2)c1,IC50,Hexokinase-1,> 80 µM (inactive)
same,IC50,Hexokinase HKDC1,> 80 µM (inactive)
Cc1cc(O)ccc1NC(=S)NC(=O)c1cncc(Br)c1,IC50,[3],10.5 µM (active)
same,EC50,[4],> 160 µM (inactive)
same,EC50,[5],1.05 µM (active)
same,EC50,[6],> 180 µM (inactive)
same,IC50,[7],> 66 µM (inactive)
same,EC50,[8],> 160 µM (inconclusive)
same,EC50,Beta-galactosidase,> 40 µM (inactive)
same,IC50,[9],> 66 µM (inactive)
CC(C)(C)CC(=O)Nc1cccc(-c2cn3cccnc3n2)c1,AC50,Escherichia coli,45.2 µM (active)
CCOc1ccc(/C=C/C2=CC(C)(C)NC(S)=N2)cc1,EC50,[4],> 150 µM (inactive)
same,EC50,[5],1.95 µM (active)
same,EC50,[6],> 180 µM (inactive)
same,EC50,[8],17.1 µM (active)
CN(C)S(=O)(=O)c1cccc(NC(=O)CSc2cccc3cccnc23)c1,AC50,[1],12.6 µM (active)
same,AC50,[2],36.2 µM (active)
same,EC50,[10],0.802 µM (active)
same,CC50,[11],> 40 µM (active)
same,EC50,[12],4.3 µM (active)
CCCCCCc1cc2cc(-c3nnc(-c4ccccc4O)o3)c(=O)oc2cc1O,IC50,[13],89 µM (active)
same,EC50,[14],11.2 µM (active)
same,EC50,[15],13 µM (active)
same,EC50,HEK293 [16],4.51 µM (active)
same,IC50,HEK293 [17],4.36 µM (inactive)
same,IC50,HEK293 [18],> 20 µM (inactive)
same,IC50,HEK293 [19],3.37 µM (active)
same,AC50,INS1,7.17 µM (active)
Cc1ccc(Cn2c(/C=C/c3cccnc3)nc3ccccc3c2=O)cc1,IC50,Hexokinase-1,> 80 µM (inactive)
same,IC50,Hexokinase HKDC1,> 80 µM (inactive)
O=C(O)CCCc1ccc2ccc3ccccc3c2c1,AC50,Cytochrome P450 2C19,inconclusive
same,AC50,Cytochrome P450 2D6,inconclusive
